Test results: patent publication US20040024024A1, “Aromatic sulfone hydroxamates and their use as protease inhibitors” (priority 2001, published 2004)

Columns and labels:
Human recombinant MMP-2 = biological target: T1, Human recombinant MMP-2 (Homo sapiens, UniProt P08253); experiment: In vitro MMP inhibition, IC50 determination (fluorogenic substrate I); type: biochemical; conditions: value outside parentheses (Ki in parenthesis)
T1 construct: made in house; host or cells: MMP-2-transfected p2AHT2 cells
T1 sequence (P08253 110-660): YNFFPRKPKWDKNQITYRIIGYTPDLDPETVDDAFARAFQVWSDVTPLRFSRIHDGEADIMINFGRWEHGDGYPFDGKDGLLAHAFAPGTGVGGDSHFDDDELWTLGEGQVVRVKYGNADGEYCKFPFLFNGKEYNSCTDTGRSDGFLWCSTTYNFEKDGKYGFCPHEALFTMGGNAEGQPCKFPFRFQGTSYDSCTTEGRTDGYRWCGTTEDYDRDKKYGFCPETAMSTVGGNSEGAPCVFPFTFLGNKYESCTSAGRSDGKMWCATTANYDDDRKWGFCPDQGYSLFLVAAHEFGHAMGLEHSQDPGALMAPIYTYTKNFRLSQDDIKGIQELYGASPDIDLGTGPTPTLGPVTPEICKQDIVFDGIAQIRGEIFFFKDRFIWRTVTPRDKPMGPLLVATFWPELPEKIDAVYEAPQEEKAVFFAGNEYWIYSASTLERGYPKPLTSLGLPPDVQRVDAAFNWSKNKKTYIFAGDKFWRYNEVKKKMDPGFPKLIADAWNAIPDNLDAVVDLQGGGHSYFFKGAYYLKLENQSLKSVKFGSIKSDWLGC
Protocol: (§1) Several hydroxamates and salts thereof were analyzed in in vitro assays to determine their ability to inhibit the MMP cleavage of peptide substrates. Inhibition (Ki) and IC50 constants were calculated from the assayed hydroxamate-MMP interactions.
(§2) Human recombinant MMP-1, MMP-2, MMP-9, MMP-13, and MMP-14 were used in this assay. All enzymes were prepared in Assignee's laboratories following usual laboratory procedures. Protocols for the preparation and use of these enzymes are available in the scientific literature. See, e.g., Enzyme Nomenclature (Academic Press, San Diego, Calif., 1992) (and the citations therein). See also, Frije et al., J. Biol. Chem., 26(24), 16766-73 (1994).
The MMP-2 proenzyme was purified by gelatin Sepharose chromatography from MMP-2-transfected p2AHT2 cells provided by Dr. Gregory Goldberg of Washington University (St. Louis, Mo.).
(§3) All MMPs were activated using 4-aminophenylmercuric acetate (“APMA”, Sigma Chemical, St. Louis, Mo.) or trypsin. MMP-9 also was activated using human recombinant MMP-3 (purified in Assignee's laboratory following standard cloning and purification techniques).
(§4) Two fluorogenic, methoxycoumarin-containing polypeptide substrates were used in the MMP inhibition assays:
(§5) MCA-ProLeuGlyLeuDpaAlaArgNH2 (I)
(§6) Here, “Dpa” is 3-(2,4-dinitrophenyl)-L-2,3-diaminopropionyl group, and “MCA” is 7-methoxycoumarin-4-yl acetyl. Substrate (I) was purchased from Baychem (Redwood City, Calif.), and substrate II was prepared Assignee's laboratory. Substrate I was used in the IC50 determination assays, while substrate II was used in the Ki determination assays. In the absence of MMP inhibitory activity, either substrate is cleaved at the Gly-Leu peptide bond. This cleavage separates the highly fluorogenic peptide from the 2,4-dinitrophenyl quencher, thus resulting in increase of fluorescent intensity.
(§7) The stock solutions of the assayed hydroxamates (or salts thereof) were prepared in 1% dimethyl sulfoxide (DMSO). These stock solutions were diluted in Buffer A (100 mM Tris-HCl, 100 mM NaCl, 10 mM CaCl2, 0.05% polyoxyethylene 23 lauryl ether, pH 7.5) to obtain solutions with different hydroxamate concentrations, i.e., assay solutions with different concentrations of the assayed MMP inhibitory compound. The experiment controls contained the same amount of Buffer A/DMSO as the assayed sample, but contained no hydroxamate (or salt thereof).
(§8) The assays from which the IC50 determinations were made were performed as follows. The MMPs were activated with either trypsin or APMA (4-aminophenylmercuric acetate, Sigma Chemical, St. Louis, Mo.). The assayed hydroxamate samples were, incubated in Microfluorrm White Plates (Dynatech, Chantilly, VA) and analyzed on a Perkin Elmer L550 plate reader (Norwalk, Conn.). The excitation wavelength was 328 nm, and the emission wavelength—415 nm. All samples (assayed hydroxamates and controls) were incubated in separate plates at room temperature in the presence of 4 μM of MMP substrate (I). As stated in the previous paragraph, samples containing varying concentrations of the same assayed hydroxamate were prepared. Inhibition was measured as a reduction in fluorescent intensity as a function of MMP inhibitor concentration.

Human recombinant MMP-13 = biological target: T2, Human recombinant MMP-13 (Homo sapiens, UniProt P45452); experiment: as above; type: biochemical; conditions: value outside parentheses (Ki in parenthesis)
T2 construct: made in house; host or cells: baculovirus / insect cells
Protocol: as §1, §2
The expressed proenzyme was first purified over a heparin agarose column, and then over a chelating zinc chloride column. The proenzyme was then activated by APMA for use in the assay. Further details on baculovirus expression systems may be found in, for example, Luckow et al., J. Virol., 67, 4566-79 (1993). See also, O'Reilly et al, Baculovirus Expression Vectors: A Laboratory Manual (W. H. Freeman and Co., New York, N.Y., 1992). See also, King et al., The Baculovirus Expression System: A Laboratory Guide (Chapman & Hall, London, England, 1992).
as §3, §4, §5, §6, §7, §8

| Compound | IC50 (Human recombinant MMP-2) | IC50 (Human recombinant MMP-13) |
| --- | --- | --- |
| O=C(NCCCOc1ccc(S(=O)(=O)C2(C(=O)NO)CCOCC2)cc1)c1ccc(-c2ccccc2)cc1 [Example 365] | 21 nM | 0.6 nM |
| O=C(NCCCOc1ccc(S(=O)(=O)C2(C(=O)NO)CCOCC2)cc1)c1ccc2ccccc2c1 [Example 366] | 347 nM | 0.3 nM |
| N#Cc1cccc(C(=O)NCCCOc2ccc(S(=O)(=O)C3(C(=O)NO)CCOCC3)cc2)c1 [Example 367] | 235 nM | 4.5 nM |
| O=C(NCCCOc1ccc(S(=O)(=O)C2(C(=O)NO)CCOCC2)cc1)c1ccc([N+](=O)[O-])cc1 [Example 369] | 155 nM | 1.5 nM |
| Cc1cc(C)c(C(=O)NCCCOc2ccc(S(=O)(=O)C3(C(=O)NO)CCOCC3)cc2)c(C)c1 [Example 370] | 900 nM | 37 nM |
| O=C(NCCCOc1ccc(S(=O)(=O)C2(C(=O)NO)CCOCC2)cc1)c1ccccc1O [Example 372] | 210 nM | 6 nM |
| CC(C)(C)c1ccc(C(=O)NCCCOc2ccc(S(=O)(=O)C3(C(=O)NO)CCOCC3)cc2)cc1 [Example 374] | 800 nM | 8 nM |
| O=C(NCCCOc1ccc(S(=O)(=O)C2(C(=O)NO)CCOCC2)cc1)c1cccc2ccccc12 [Example 375] | 425 nM | 17 nM |
| COc1ccc2cc(O)c(C(=O)NCCCOc3ccc(S(=O)(=O)C4(C(=O)NO)CCOCC4)cc3)cc2c1 [Example 377] | 1270 nM | 5.9 nM |
| O=C(NCCCOc1ccc(S(=O)(=O)C2(C(=O)NO)CCOCC2)cc1)c1cc2cc(O)ccc2cc1O [Example 378] | 655 nM | 2.7 nM |
| O=C(NCCCOc1ccc(S(=O)(=O)C2(C(=O)NO)CCOCC2)cc1)c1cc2cccc(O)c2cc1O [Example 379] | 258 nM | 10 nM |
| COc1ccc2cc(C(=O)NCCCOc3ccc(S(=O)(=O)C4(C(=O)NO)CCOCC4)cc3)ccc2c1 [Example 380] | 450 nM | 0.2 nM |
| O=C(NCCCOc1ccc(S(=O)(=O)C2(C(=O)NO)CCOCC2)cc1)c1ccc(Cl)nc1 [Example 381] | 193 nM | 1.4 nM |
| O=C(NCCCOc1ccc(S(=O)(=O)C2(C(=O)NO)CCOCC2)cc1)c1ccccn1 [Example 382] | 59 nM | 1.7 nM |
| O=C(NCCCOc1ccc(S(=O)(=O)C2(C(=O)NO)CCOCC2)cc1)c1ccncc1 [Example 383] | 351 nM | 7.5 nM |
| N#Cc1ccc(C(=O)NCCCOc2ccc(S(=O)(=O)C3(C(=O)NO)CCOCC3)cc2)cc1 [Example 387] | 83 nM | 2.2 nM |
| O=C(NCCCOc1ccc(S(=O)(=O)C2(C(=O)NO)CCOCC2)cc1)c1ccc2ccccc2c1O [Example 388] | 185 nM | 2 nM |
| O=C(NCCCOc1ccc(S(=O)(=O)C2(C(=O)NO)CCOCC2)cc1)c1ccc2ccccc2n1 [Example 389] | 47 nM | 0.5 nM |
| Cn1cccc1C(=O)NCCCOc1ccc(S(=O)(=O)C2(C(=O)NO)CCOCC2)cc1 [Example 391] | 900 nM | 7 nM |
| COc1ccc(C(=O)NCCOc2ccc(S(=O)(=O)C3(C(=O)NO)CCOCC3)cc2)cc1 [Example 393] | 50 nM | 45 nM |
| C[C@H](COc1ccc(S(=O)(=O)C2(C(=O)NO)CCOCC2)cc1)NC(=O)c1ccc(N(C)C)cc1 [Example 394] | 3200 nM | 1900 nM |

| Compound | IC50 (Human recombinant MMP-2) | IC50 (Human recombinant MMP-13) |
| --- | --- | --- |
| C[C@@H](COc1ccc(S(=O)(=O)C2(C(=O)NO)CCOCC2)cc1)NC(=O)c1ccc(N(C)C)cc1 [Example 395] | 6000 nM | 305 nM |
| COc1ccc(C(=O)NCCCCOc2ccc(S(=O)(=O)C3(C(=O)NO)CCOCC3)cc2)cc1 [Example 396] | 4 nM | 4 nM |
| CN(C)c1ccc(C(=O)NCCCCOc2ccc(S(=O)(=O)C3(C(=O)NO)CCOCC3)cc2)cc1 [Example 397] | 3 nM | 14 nM |
| O=C(NCCCOc1ccc(S(=O)(=O)C2(C(=O)NO)CCOCC2)cc1)C1CCCCC1 [Example 399] | 650 nM | 8 nM |
| O=C(NCCCOc1ccc(S(=O)(=O)C2(C(=O)NO)CCOCC2)cc1)C1CCCC1 [Example 400] | 326 nM | 9 nM |
| CCCC(C)(C)C(=O)NCCCOc1ccc(S(=O)(=O)C2(C(=O)NO)CCOCC2)cc1 [Example 402] | 454 nM | 30 nM |
| CC(C)(C(=O)NCCCOc1ccc(S(=O)(=O)C2(C(=O)NO)CCOCC2)cc1)c1ccccc1 [Example 404] | 254 nM | 15 nM |
| O=C(NO)C1(S(=O)(=O)c2ccc(OCCCSc3nc4c(Cl)cc(Cl)cc4o3)cc2)CCOCC1 [Example 407] | 285 nM | 25 nM |
| O=C(NO)C1(S(=O)(=O)c2ccc(OCCCN3CCCc4ccccc43)cc2)CCOCC1 [Example 412] | 313 nM | 41 nM |
| O=C(NO)C1(S(=O)(=O)c2ccc(OCCCCN3CCCc4ccccc43)cc2)CCOCC1 [Example 413] | 61 nM | 8 nM |
| O=C(NO)C1(S(=O)(=O)c2ccc(OCCCCCN3CCCc4ccccc43)cc2)CCOCC1 [Example 414] | 37 nM | 14 nM |
| COc1ccc2c(c1)CCCN2CCCCCOc1ccc(S(=O)(=O)C2(C(=O)NO)CCOCC2)cc1 [Example 416] | 17 nM | 8.6 nM |
| O=C(NCCCOc1ccc(S(=O)(=O)C2(C(=O)NO)CCOCC2)cc1)c1ccccc1 [Example 417] | 315 nM | 2.6 nM |
| COc1ccc(S(=O)(=O)NCCCOc2ccc(S(=O)(=O)C3(C(=O)NO)CCOCC3)cc2)cc1 [Example 419] | 120 nM | 4 nM |
| COc1ccc(C(=O)N2CCCC(COc3ccc(S(=O)(=O)C4(C(=O)NO)CCOCC4)cc3)C2)cc1 (stereo not shown) [Example 421] | 649 nM | 256 nM |
| COc1ccc(C(=O)N2CC[C@@H](Oc3ccc(S(=O)(=O)C4(C(=O)NO)CCOCC4)cc3)C2)cc1 [Example 422] | 7200 nM | 1480 nM |
| O=C(c1ccc(OC(F)(F)F)cc1)N1CC[C@@H](Oc2ccc(S(=O)(=O)C3(C(=O)NO)CCOCC3)cc2)C1 [Example 423] | 9000 nM | 1590 nM |
| O=C(c1cccc(C(F)(F)F)c1)N1CC[C@@H](Oc2ccc(S(=O)(=O)C3(C(=O)NO)CCOCC3)cc2)C1 [Example 424] | 485 nM | 192 nM |
| O=C(C1CCCCC1)N1CC[C@@H](Oc2ccc(S(=O)(=O)C3(C(=O)NO)CCOCC3)cc2)C1 [Example 425] | > 10000 nM | 3310 nM |
| COc1ccc(C(=O)N2CC[C@@H](Oc3ccc(S(=O)(=O)C4(C(=O)NO)CCOCC4)cc3)C2)cc1OC [Example 426] | > 10000 nM | 5150 nM |
